Results published in patent US20260165323A1, “USE OF STROBILURIN TYPE COMPOUNDS FOR COMBATING PHYTOPATHOGENIC FUNGI CONTAINING AN AMINO ACID SUBSTITUTION F129L IN THE MITOCHONDRIAL CYTOCHROME B PROTEIN CONFERRING RESISTANCE TO QO […]” (priority 2022, published 2026).

Key:
[1] = test system: Phakopsora pachyrhizi containing the amino acid substitution F129L in the mitochondrial cytochrome b protein; experiment: Use Example 2: protective control of soybean rust on soybeans (PHAKPA P6); format: in vivo; conditions: inoculated six days after spraying, % diseased leaf area
Procedure, shortened: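 Compound in acetone and/or DMSO with Wettol (99:1), diluted with water, was sprayed to run-off on potted soybean seedlings. After six days at 23–27°C and 60–80% RH, plants were inoculated with a Qo-resistant F129L strain and held 24 h at about 95% RH. Percent diseased leaf area was scored visually after up to 14 days.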

[2] = test system: Sclerotinia sclerotiorum (SCLESC); experiment: Use example 11: microtest, growth of Sclerotinia sclerotiorum (SCLESC); format: cell-based; conditions: relative growth vs compound-free control (100%), 7 days after inoculation; for Growth (%) SCLESC Use ex. 11: 8 ppm
Procedure: (§1) The active compounds were formulated separately as a stock solution having a concentration of 10000 ppm in dimethyl sulfoxide. The stock solutions were mixed according to the ratio, pipetted onto a micro titer plate (MTP) and diluted with water to the stated concentrations. A spore suspension of one of the following fungal plant pathogens in aqueous bio malt solution • was then added for the respective use example: • Use example 5: Alternaria solani (ALTESO) • Use example 6: Botrytis cinerea (BOTRCI) • Use example 7: Cercospora sojina (CERCSO) • Use example 8: Colletotrichum orbiculare (COLLLA) • Use example 9: Leptosphaeria nodorum (LEPTNO) • Use example 10: Drechslera teres (PYRNTE) containing the amino acid substitution F129L in the mitochondrial cytochrome b protein conferring resistance to Qo inhibitors • Use example 11: Sclerotinia sclerotiorum (SCLESC), solute with ultrasonic from a filter membrane
(§2) The plates were placed in a water vapor-saturated chamber at a temperature of 18° C. Using an absorption photometer, the MTPs were measured at 405 nm 7 days after the inoculation.
(§3) The measured parameters were compared to the growth of the active compound-free control variant (100%) and the fungus-free blank value to determine the relative growth in % of the pathogens in the respective active compounds.

[3] = test system: Phakopsora pachyrhizi containing the amino acid substitution F129L in the mitochondrial cytochrome b protein; experiment: Use Example 1: protective control of soybean rust on soybeans (PHAKPA P2); format: in vivo; conditions: inoculated 2 days after spraying, % diseased leaf area
Procedure, shortened: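 Soybean seedling leaves sprayed to run-off with compound in acetone/DMSO–Wettol–water at the stated concentration, kept 2 days at 23-27° C, then inoculated with Qo-inhibitor-resistant F129L P. pachyrhizi. After 24 h at ~95% RH, 20-24° C, and up to 14 days in greenhouse, % diseased leaf area scored visually.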

[4] = test system: Alternaria solani (ALTESO); experiment: Use example 5: microtest, growth of Alternaria solani (ALTESO); format: cell-based; conditions: 0.125 ppm; relative growth vs compound-free control (100%), 7 days after inoculation
Procedure: as §1, §2, §3

[5] = test system: Puccinia recondita; experiment: Use Example 4: preventative control of brown rust on wheat (PUCCRT P7); format: in vivo; conditions: inoculated seven days after spraying, % diseased leaf area
Procedure, shortened: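 First two leaves of potted wheat seedlings sprayed to run-off with compound in acetone/DMSO–emulsifier–water, then inoculated with Puccinia recondita spores seven days later. Plants held 24 h dark at 95–99% RH and 20–24 °C, then 9–11 days in greenhouse; diseased leaf area (%) scored visually.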

[6] = test system: Puccinia recondita; experiment: Use Example 3: curative control of brown rust on wheat (PUCCRT K4); format: in vivo; conditions: % diseased leaf area
Procedure, shortened: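 Wheat seedlings inoculated with Puccinia recondita spores, held 24 h at 95–99% RH, 20–24° C in dark, then 3 days in greenhouse before spraying to run-off (curative). Compound in acetone/DMSO–Wettol–water. After 5–7 further days at 20–24° C, 65–70% RH, % diseased leaf area scored visually.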

[7] = test system: Botrytis cinerea (BOTRCI); experiment: Use example 6: microtest, growth of Botrytis cinerea (BOTRCI); format: cell-based; conditions: relative growth vs compound-free control (100%); for Growth (%) BOTRCI Use Ex. 6: 0.5 ppm, 7 days; for Growth at 125 ppm (%) BOTRCI Use Ex. 6 / Growth at 8 ppm (%) BOTRCI Use Ex. 6: 7 days after inoculation
Procedure: as §1, §2, §3

[8] = test system: Drechslera teres (PYRNTE) containing the amino acid substitution F129L in the mitochondrial cytochrome b protein; experiment: Use example 10: microtest, growth of Drechslera teres (PYRNTE) F129L; format: cell-based; conditions: 125 ppm, relative growth vs compound-free control (100%), 7 days; for Growth (%) PYRNTE F129L Use Ex. 10: Table 7; for Growth (%) PYRNTE F129L Use ex. 10: Table 13
Procedure: as §1, §2, §3

[9] = test system: Cercospora sojina (CERCSO); experiment: Use example 7: microtest, growth of Cercospora sojina (CERCSO); format: cell-based; conditions: relative growth vs compound-free control (100%); for Growth (%) CERCSO Use Ex. 7: 7 days; for Growth at 8 ppm (%) CERCSO Use ex. 7: 7 days after inoculation
Procedure: as §1, §2, §3

[10] = test system: Leptosphaeria nodorum (LEPTNO); experiment: Use example 9: microtest, growth of Leptosphaeria nodorum (LEPTNO); format: cell-based; conditions: relative growth vs compound-free control (100%); for Growth at 125 ppm (%) LEPTNO Use Ex. 9: 7 days after inoculation; for Growth (%) LEPTNO Use Ex. 9: 125 ppm, 7 days, Table 9
Procedure: as §1, §2, §3

[11] = test system: Colletotrichum orbiculare (COLLLA); experiment: Use example 8: microtest, growth of Colletotrichum orbiculare (COLLLA); format: cell-based; conditions: relative growth vs compound-free control (100%), 7 days; for Growth (%) COLLLA Use Ex. 8: 125 ppm; for Growth (%) COLLLA Use ex. 8: 8 ppm
Procedure: as §1, §2, §3

| Structure (SMILES) | % PHAKPA (F129L) Disease level P6 at 4 ppm [1] | % PHAKPA (F129L) Disease level P6 at 16 ppm [1] | % PHAKPA (F129L) Disease level P2 at 4 ppm [3] | % PHAKPA (F129L) Disease level P2 at 16 ppm [3] | % PUCCRT Disease level P7 at 4 ppm [5] | % PUCCRT Disease level P7 at 16 ppm [5] | % PUCCRT Disease level K4 at 4 ppm [6] | % PUCCRT Disease level K4 at 16 ppm [6] | also measured |
| --- | --- | --- | --- | --- | --- | --- | --- | --- | --- |
| COC/C(=N\OCc1c(Cl)cccc1/C(=N\OC)C(=O)OC)c1ccc(F)cc1 [compound 1, Methyl (2E)-2-[3-chloro-2-[[(Z)-[1-(4-fluorophenyl)-2-methoxy-ethylidene]amino]oxymethyl]phenyl]-2-methoxyimino-acetate] | 57% | 11% | 20% | 1% | 53% | 23% | 87% | 77% | Growth (%) SCLESC Use ex. 11 [2]: 72%; Growth (%) ALTESO Use ex. 5 [4]: 73% |
| COC/C(=N\OCc1c(Cl)cccc1/C(=N\OC)C(=O)OC)c1ccc(Cl)cc1 [compound 34] | 80% | 25% | 68% | 22% | 48% | 9% | 75% | 70% | Growth (%) BOTRCI Use Ex. 6 [7]: 35%; Growth (%) PYRNTE F129L Use Ex. 10 [8]: 4%; Growth (%) CERCSO Use Ex. 7 ([9]; 31 ppm): 56% |
| COC/C(=N\OCc1c(Br)cccc1/C(=N\OC)C(=O)OC)c1ccccc1 [compound 57] | 48% | 21% | 41% | 3% | 60% | 13% | – | – | Growth at 125 ppm (%) BOTRCI Use Ex. 6 [7]: 0%; Growth at 125 ppm (%) LEPTNO Use Ex. 9 [10]: 1%; Growth at 125 ppm (%) SCLESC Use Ex. 11 [2]: 2% |
| CNC(=O)/C(=N/OC)c1cccc(C)c1CO/N=C(\COC)c1cccc(C(F)(F)F)c1 [reference compound] | – | – | – | – | – | – | – | – | Growth at 8 ppm (%) BOTRCI Use Ex. 6 [7]: 78%; Growth at 8 ppm (%) CERCSO Use ex. 7 [9]: 28% |
| CNC(=O)/C(=N/OC)c1cccc(Cl)c1CO/N=C(\COC)c1cccc(C(F)(F)F)c1 [compound 56] | 23% | 0% | 15% | 0% | 2% | 2% | 8% | 0% | Growth at 8 ppm (%) BOTRCI Use Ex. 6 [7]: 64%; Growth at 8 ppm (%) CERCSO Use ex. 7 [9]: 13% |
| CO/N=C(/C(=O)OC)c1cccc(Br)c1CO/N=C(\C)c1ccccc1 [reference compound] | – | – | – | – | – | – | – | – | Growth at 125 ppm (%) BOTRCI Use Ex. 6 [7]: 69%; Growth at 125 ppm (%) LEPTNO Use Ex. 9 [10]: 19%; Growth at 125 ppm (%) SCLESC Use Ex. 11 [2]: 39% |
| CO/C=C(/C(=O)OC)c1cccc(Br)c1CO/N=C(\COC)c1c(F)cc(F)cc1F [compound 58] | 0% | 0% | 2% | 0% | 57% | 30% | 27% | 15% | Growth (%) LEPTNO Use Ex. 9 [10]: 47%; Growth (%) COLLLA Use Ex. 8 [11]: 26%; Growth (%) CERCSO Use Ex. 7 ([9]; 125 ppm, Table 9): 63% |
| CO/C=C(/C(=O)OC)c1cccc(C)c1CO/N=C(\COC)c1c(F)cc(F)cc1F [I.2-A-43860, reference compound] | – | – | – | – | – | – | – | – | Growth (%) LEPTNO Use Ex. 9 [10]: 64%; Growth (%) COLLLA Use Ex. 8 [11]: 43%; Growth (%) CERCSO Use Ex. 7 ([9]; 125 ppm, Table 9): 90% |
| CO/C=C(/C(=O)OC)c1cccc(Cl)c1CO/N=C(\COC)c1c(F)cc(F)cc1F [compound 12, Methyl-(E)-2-[3-chloro-2-[[(Z)-[2-methoxy-1-(2,4,6-trifluorophenyl)ethylidene]amino]oxymethyl]phenyl]-3-methoxy-prop-2-enoate] | 4% | 0% | 2% | 0% | 17% | 9% | 23% | 18% | Growth (%) COLLLA Use Ex. 8 [11]: 20% |
| COC/C(=N\OCc1c(C)cccc1/C(=N\OC)C(=O)OC)c1ccc(F)cc1 [reference compound] | – | – | – | – | – | – | – | – | Growth (%) SCLESC Use ex. 11 [2]: 89%; Growth (%) ALTESO Use ex. 5 [4]: 97% |
| COC/C(=N\OCc1c(C)cccc1/C(=N\OC)C(=O)OC)c1ccc(Cl)cc1 [I.1-A-83, reference compound] | – | – | – | – | – | – | – | – | Growth (%) BOTRCI Use Ex. 6 [7]: 53%; Growth (%) PYRNTE F129L Use Ex. 10 [8]: 23%; Growth (%) CERCSO Use Ex. 7 ([9]; 31 ppm): 83% |
| CNC(=O)/C(=N/OC)c1cccc(C)c1CO/N=C(\COC)c1c(F)cc(F)cc1F [I.3-A-43860, reference compound] | – | – | – | – | – | – | – | – | Growth (%) COLLLA Use ex. 8 [11]: 62%; Growth (%) PYRNTE F129L Use ex. 10 [8]: 36% |
| CNC(=O)/C(=N/OC)c1cccc(Cl)c1CO/N=C(\COC)c1c(F)cc(F)cc1F [compound 31] | 3% | 0% | 0% | 0% | 17% | 4% | 40% | 7% | Growth (%) COLLLA Use ex. 8 [11]: 34%; Growth (%) PYRNTE F129L Use ex. 10 [8]: 21% |
